Test results from US12552772B2, “2-pyrazole anilines and related analogs for inhibiting YAP/TAZ-TEAD” (KATHOLIEKE UNIVERSITEIT LEUVEN, priority 2021, dated 2026).

Columns and labels:
Assay type in all cases: cell-based
NCI-H226 = test: Mesothelioma cell line proliferation assay (ATPlite), NCI-H226; settings: NCI-H226 cells, 6 days, ATPlite cell viability
Method: (§1) Mesothelioma cell lines, NCI-H226 and NCI-H2052 (all sourced from the ATCC cell culture collection) are plated in 96-well plates (Corning® 96 Well White Polystyrene Microplate clear flat bottom, white polystyrene (TC-Treated)), at 1500 cells/well in full medium (RPMI 1640 ATCC modification with L-glutamine, HEPES, Phenol Red, Sodium Pyruvate, High glucose, Low sodium bicarbonate and 10% fetal bovine serum). Cells are incubated overnight at 37° C. in an incubator with 5% CO2. Then compounds, dissolved in DMSO, are added in dose-response. Cells are incubated with compound dilutions for another 6 days at 37° C. in an incubator with 5% CO2. Cell viability is quantitated using the ATPlite kit (Perkin-Elmer) and the luminescence is read-out using an Envision instrument (Perkin-Elmer). The amount of relative light units produced using the ATPlite kit is used to calculated percent of inhibition.
(§2) The activities of example compounds tested are depicted in the table below. The activity ranges A, B and C refer to EC50 values in the mesothelioma cell line proliferation assay as described as follows: “A”: EC50<1 μM; “B”: 1 μM s EC50≤10 μM and “C”: EC50>10 μM. NT: not tested.

[1] = tested on: YAP/TAZ-TEAD transcription; test: Reporter gene assay for measuring the inhibition of YAP/TAZ-TEAD transcription (TEAD-responsive element luciferase reporter in Hek293T cells); settings: 24 hours incubation
Outline: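 Hek293T cells transiently transfected with a TEAD-responsive element luciferase reporter were plated onto compounds and incubated 24 h at 37 °C/5% CO2. SteadyLite luminescence gave percent inhibition, normalised to vehicle (0%) and positive control inhibitor (100%); EC50 derived.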

NCI-H2052 = test: Mesothelioma cell line proliferation assay (ATPlite), NCI-H2052; settings: NCI-H2052 cells, 6 days, ATPlite cell viability
Method: as §1, §2

Row | Compound | EC50 (NCI-H226; Homo sapiens, 144 h) [µM] | EC50 ([1]; Homo sapiens, HEK-293T) [µM] | EC50 (NCI-H2052; Homo sapiens, NCI-H2052, 144 h) [µM] | EC50 (NCI-H226) [µM] | EC50 [1] [µM] | EC50 (NCI-H2052) [µM]
1 | C=CC(=O)NCc1ccc(-c2ccc(F)cc2)cc1-c1ccn(C)n1 [compound 143, N-((4′-fluoro-3-(1-methyl-1H-pyrazol-3-yl)-[1,1′-biphenyl]-4-yl)methyl)acrylamide] | < 1 | < 1 | < 1 |  |  | 
2 | C=CC(=O)NCc1ccc(-c2ccc(Cl)cc2)cc1-c1ccn(C)n1 [compound 157, N-((4′-chloro-3-(1-methyl-1H-pyrazol-3-yl)-[1,1′-biphenyl]-4-yl)methyl)acrylamide] | < 1 | < 1 | < 1 |  |  | 
3 | C=CC(=O)N1CCC(c2ccc(-c3ccc(F)cc3)cc2-c2ccn(C)n2)C1 (stereo not drawn) [Cpd. No. 258, 1-(3-(4′-fluoro-3-(1-methyl-1H-pyrazol-3-yl)-[1,1′-biphenyl]-4-yl)pyrrolidin-1-yl)prop-2-en-1-one] | < 1 | < 1 | < 1 |  |  | 
4 | C=CC(=O)NCc1ccc(-c2ccc(F)cc2)cc1-c1cc[nH]n1 [compound 161, N-((4′-fluoro-3-(1H-pyrazol-3-yl)-[1,1′-biphenyl]-4-yl)methyl)acrylamide] | < 1 | < 1 | < 1 |  |  | 
5 | CNS(=O)(=O)CCNc1cnc(-c2ccc(F)cc2)cc1-c1ccn(C(F)F)n1 [compound 131, 2-((4-(1-(difluoromethyl)-1H-pyrazol-3-yl)-6-(4-fluorophenyl)pyridin-3-yl)amino)-N-methylethane-1-sulfonamide] | 1 to 10 | < 1 | > 10 |  |  | 
6 | C=CC(=O)NCc1ccc(-c2ccc(F)cc2)cc1-c1cn(C)nn1 [compound 184, N-((4′-fluoro-3-(1-methyl-1H-1,2,3-triazol-4-yl)-[1,1′-biphenyl]-4-yl)methyl)acrylamide] | < 1 | < 1 | < 1 |  |  | 
7 | C=CC(=O)NCc1ccc(-c2ccc(F)cc2)cc1-c1cn(C(F)F)nn1 [compound 185, N-((3-(1-(difluoromethyl)-1H-1,2,3-triazol-4-yl)-4′-fluoro-[1,1′-biphenyl]-4-yl)methyl)acrylamide] | < 1 | < 1 | 1 to 10 |  |  | 

Continued, values first:

Row | EC50 (NCI-H226; Homo sapiens, 144 h) [µM] | EC50 ([1]; Homo sapiens, HEK-293T) [µM] | EC50 (NCI-H2052; Homo sapiens, NCI-H2052, 144 h) [µM] | EC50 (NCI-H226) [µM] | EC50 [1] [µM] | EC50 (NCI-H2052) [µM] | Compound
8 | < 1 | < 1 | < 1 |  |  |  | C=CC(=O)NCc1ccc(-c2ccc(F)cc2)cc1-c1cnn(C)c1 [compound 162, N-((4′-fluoro-3-(1-methyl-1H-pyrazol-4-yl)-[1,1′-biphenyl]-4-yl)methyl)acrylamide]
9 | < 1 | < 1 | 1 to 10 |  |  |  | C=CC(=O)Nc1cc(-c2ccccc2)cc(-c2ccn(Cc3cccnc3)n2)c1 [compound 083, N-(5-(1-(pyridin-3-ylmethyl)-1H-pyrazol-3-yl)-[1,1′-biphenyl]-3-yl)acrylamide]
10 | < 1 | < 1 | < 1 |  |  |  | C=CC(=O)NCc1ccc(-c2cccc(C(F)(F)F)c2)cc1-c1ccn(C)n1 [compound 141, N-((3-(1-methyl-1H-pyrazol-3-yl)-3′-(trifluoromethyl)-[1,1′-biphenyl]-4-yl)methyl)acrylamide]
11 | > 10 | < 1 | > 10 |  |  |  | CNS(=O)(=O)CCNc1ccc(-c2ccc(F)cc2)nc1-c1ccn(C(F)F)n1 [compound 132, 2-((2-(1-(difluoromethyl)-1H-pyrazol-3-yl)-6-(4-fluorophenyl)pyridin-3-yl)amino)-N-methylethane-1-sulfonamide]
12 |  |  |  | < 1 | < 1 | 1 to 10 | C=CC(=O)N1CCC(c2ccc(-c3ccc(F)cc3)cc2-c2ccn(C(F)F)n2)C1 (stereo not drawn) [Cpd. No. 261-En1, 1-(3-(3-(1-(difluoromethyl)-1H-pyrazol-3-yl)-4′-fluoro-[1,1′-biphenyl]-4-yl)pyrrolidin-1-yl)prop-2-en-1-one]
13 | < 1 | < 1 | < 1 |  |  |  | C=CC(=O)NCc1ccc(-c2ccc(F)cc2)cc1-c1ccn(C(F)F)n1 [compound 170, N-((3-(1-(difluoromethyl)-1H-pyrazol-3-yl)-4′-fluoro-[1,1′-biphenyl]-4-yl)methyl)acrylamide]
